Patent US20090036448A1, “PYRIMIDINE DERIVATIVES AND METHODS OF TREATMENT RELATED TO THE USE THEREOF” (TAISHO PHARMECUTICAL CO., LTD., priority 2004, published 2009)

Each compound was assayed against MCH receptor (Homo sapiens, UniProt Q99705) (assay: Receptor binding assay with Radiolabelled MCH Ligand). Details: class by percent of control at 10^-7 M or IC50.
Chain of MCH receptor (Q99705 whole entry): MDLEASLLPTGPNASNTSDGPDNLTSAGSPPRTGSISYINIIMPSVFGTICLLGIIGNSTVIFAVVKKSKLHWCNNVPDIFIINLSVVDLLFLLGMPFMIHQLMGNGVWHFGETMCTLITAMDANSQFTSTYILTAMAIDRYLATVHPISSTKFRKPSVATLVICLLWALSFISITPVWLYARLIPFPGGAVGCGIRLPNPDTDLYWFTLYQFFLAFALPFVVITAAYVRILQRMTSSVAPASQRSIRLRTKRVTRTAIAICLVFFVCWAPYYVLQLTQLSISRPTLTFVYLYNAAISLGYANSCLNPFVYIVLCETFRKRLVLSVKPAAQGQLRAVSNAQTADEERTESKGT
Parameters: expressed in transfected cells; host or cells: 293 cells (human kidney, ATCC), transient transfection; crude membranes
In short: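 This was a filtration radioligand displacement assay: compounds, first tested at 1 and 0.1 μM and then over a range, inhibited binding of a labelled MCH ligand to transfected 293-cell membranes at room temperature for 60–120 min. Specific binding excluded a cold-MCH nonspecific signal. Ki was derived from IC50 via Cheng-Prusoff, using an independently measured KD.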
With `COc1ccc(NC(=S)N[C@H]2CC[C@@H](Nc3cc(N(C)C)nc(C)n3)CC2)c(OC)c1` [compound 444] the class was 3 (Class 3: The value of percent of control at 10^−7 M was more than 60% or the value of IC50 was more than 200 nM.).
With `COc1ccc(NC(=S)N[C@H]2CC[C@@H](Nc3cc(N(C)C)nc(C)n3)CC2)cc1OC` [compound 445] the class was 3 (Class 3: The value of percent of control at 10^−7 M was more than 60% or the value of IC50 was more than 200 nM.).
With `CCOc1ccccc1NC(=S)N[C@H]1CC[C@@H](Nc2cc(N(C)C)nc(C)n2)CC1` [compound 446] the class was 3 (Class 3: The value of percent of control at 10^−7 M was more than 60% or the value of IC50 was more than 200 nM.).
`Cc1nc(N[C@H]2CC[C@@H](NC(=S)Nc3c(Br)cc(Br)cc3Br)CC2)cc(N(C)C)n1` [compound 447, N-(cis-4-{[6-(dimethylamino)-2-methylpyrimidin-4-yl]amino}cyclohexyl)-N′-(2,4,6-tribromophenyl)thiourea] was tested, and the class was 1 (Class 1: The value of percent of control at 10^−7 M was less than 40% or the value of IC50 was less than 50 nM.).
With `Cc1nc(N[C@H]2CC[C@@H](NC(=S)Nc3c(F)cc(Br)cc3Br)CC2)cc(N(C)C)n1` [compound 448] the class was 3 (Class 3: The value of percent of control at 10^−7 M was more than 60% or the value of IC50 was more than 200 nM.).
For `Cc1nc(N[C@H]2CC[C@@H](NC(=S)Nc3ccc(I)cc3)CC2)cc(N(C)C)n1` [compound 449], the class was 3 (Class 3: The value of percent of control at 10^−7 M was more than 60% or the value of IC50 was more than 200 nM.).
`Cc1nc(N[C@H]2CC[C@@H](NC(=S)Nc3ccc(C#N)cc3)CC2)cc(N(C)C)n1` [compound 450] was tested, and the class was 3 (Class 3: The value of percent of control at 10^−7 M was more than 60% or the value of IC50 was more than 200 nM.).
In the case of `COC(=O)c1scc(C)c1NC(=S)N[C@H]1CC[C@@H](Nc2cc(N(C)C)nc(C)n2)CC1` [compound 451], the class is reported as 3 (Class 3: The value of percent of control at 10^−7 M was more than 60% or the value of IC50 was more than 200 nM.).
For `Cc1nc(N[C@H]2CC[C@@H](NC(=O)OCC(C)(C)C)CC2)cc(N(C)C)n1` [compound 452], the class was 3 (Class 3: The value of percent of control at 10^−7 M was more than 60% or the value of IC50 was more than 200 nM.).
In the case of `COc1cc(COC(=O)N[C@H]2CC[C@@H](Nc3cc(N(C)C)nc(C)n3)CC2)c([N+](=O)[O-])cc1OC` [compound 453], the class is reported as 3 (Class 3: The value of percent of control at 10^−7 M was more than 60% or the value of IC50 was more than 200 nM.).
With `Cc1nc(N[C@H]2CC[C@@H](NC(=O)Oc3cccc(C(F)(F)F)c3)CC2)cc(N(C)C)n1` [compound 454] the class was 3 (Class 3: The value of percent of control at 10^−7 M was more than 60% or the value of IC50 was more than 200 nM.).
With `Cc1nc(N[C@H]2CC[C@@H](NC(=O)Oc3ccc(Br)cc3)CC2)cc(N(C)C)n1` [compound 455, 4-bromophenyl (cis-4-{[6-(dimethylamino)-2-methylpyrimidin-4-yl]amino}cyclohexyl)carbamate] the class was 3 (Class 3: The value of percent of control at 10^−7 M was more than 60% or the value of IC50 was more than 200 nM.).
For `COc1ccccc1OC(=O)N[C@H]1CC[C@@H](Nc2cc(N(C)C)nc(C)n2)CC1` [compound 456], the class was 3 (Class 3: The value of percent of control at 10^−7 M was more than 60% or the value of IC50 was more than 200 nM.).
In the case of `COCCOC(=O)N[C@H]1CC[C@@H](Nc2cc(N(C)C)nc(C)n2)CC1` [compound 457], the class is reported as 3 (Class 3: The value of percent of control at 10^−7 M was more than 60% or the value of IC50 was more than 200 nM.).
`CCCCCCCCOC(=O)N[C@H]1CC[C@@H](Nc2cc(N(C)C)nc(C)n2)CC1` [compound 458] was tested, and the class was 3 (Class 3: The value of percent of control at 10^−7 M was more than 60% or the value of IC50 was more than 200 nM.).
With `CCOC(=O)N[C@H]1CC[C@@H](Nc2cc(N(C)C)nc(C)n2)CC1` [compound 459] the class was 3 (Class 3: The value of percent of control at 10^−7 M was more than 60% or the value of IC50 was more than 200 nM.).
`Cc1nc(N[C@H]2CC[C@@H](NC(=O)OCc3ccc([N+](=O)[O-])cc3)CC2)cc(N(C)C)n1` [compound 460] was tested, and the class was 3 (Class 3: The value of percent of control at 10^−7 M was more than 60% or the value of IC50 was more than 200 nM.).
For `Cc1nc(N[C@H]2CC[C@@H](NC(=O)Oc3ccc4ccccc4c3)CC2)cc(N(C)C)n1` [compound 461], the class was 3 (Class 3: The value of percent of control at 10^−7 M was more than 60% or the value of IC50 was more than 200 nM.).
In the case of `C=CCOC(=O)N[C@H]1CC[C@@H](Nc2cc(N(C)C)nc(C)n2)CC1` [compound 462], the class is reported as 3 (Class 3: The value of percent of control at 10^−7 M was more than 60% or the value of IC50 was more than 200 nM.).
In the case of `Cc1nc(N[C@H]2CC[C@@H](NC(=O)OCc3ccccc3)CC2)cc(N(C)C)n1` [compound 463], the class is reported as 3 (Class 3: The value of percent of control at 10^−7 M was more than 60% or the value of IC50 was more than 200 nM.).
For `Cc1nc(N[C@H]2CC[C@@H](NC(=O)Oc3ccccc3)CC2)cc(N(C)C)n1` [compound 464, phenyl (cis-4-{[6-(dimethylamino)-2-methylpyrimidin-4-yl]amino}cyclohexyl)carbamate], the class was 3 (Class 3: The value of percent of control at 10^−7 M was more than 60% or the value of IC50 was more than 200 nM.).
With `Cc1nc(N[C@H]2CC[C@@H](NC(=O)OC3C[C@H](C)CC[C@H]3C(C)C)CC2)cc(N(C)C)n1` (stereo partly drawn) [compound 465] the class was 3 (Class 3: The value of percent of control at 10^−7 M was more than 60% or the value of IC50 was more than 200 nM.).
`Cc1ccc(OC(=O)N[C@H]2CC[C@@H](Nc3cc(N(C)C)nc(C)n3)CC2)cc1` [compound 466] was tested, and the class was 3 (Class 3: The value of percent of control at 10^−7 M was more than 60% or the value of IC50 was more than 200 nM.).
With `COC(=O)N[C@H]1CC[C@@H](Nc2cc(N(C)C)nc(C)n2)CC1` [compound 467] the class was 3 (Class 3: The value of percent of control at 10^−7 M was more than 60% or the value of IC50 was more than 200 nM.).
`Cc1nc(N[C@H]2CC[C@@H](NC(=O)OCc3ccccc3Cl)CC2)cc(N(C)C)n1` [compound 468] was tested, and the class was 3 (Class 3: The value of percent of control at 10^−7 M was more than 60% or the value of IC50 was more than 200 nM.).
In the case of `Cc1nc(N[C@H]2CC[C@@H](NC(=O)OCC3c4ccccc4-c4ccccc43)CC2)cc(N(C)C)n1` [compound 469], the class is reported as 3 (Class 3: The value of percent of control at 10^−7 M was more than 60% or the value of IC50 was more than 200 nM.).
With `Cc1nc(N[C@H]2CC[C@@H](NC(=O)OCC(Cl)(Cl)Cl)CC2)cc(N(C)C)n1` [compound 470] the class was 3 (Class 3: The value of percent of control at 10^−7 M was more than 60% or the value of IC50 was more than 200 nM.).
For `Cc1nc(N[C@H]2CC[C@@H](NS(=O)(=O)/C=C/c3ccccc3)CC2)cc(N(C)C)n1` [compound 471], the class was 3 (Class 3: The value of percent of control at 10^−7 M was more than 60% or the value of IC50 was more than 200 nM.).
For `Cc1nc(N[C@H]2CC[C@@H](NS(=O)(=O)Cc3cccc(C(F)(F)F)c3)CC2)cc(N(C)C)n1` [compound 472], the class was 3 (Class 3: The value of percent of control at 10^−7 M was more than 60% or the value of IC50 was more than 200 nM.).
`Cc1nc(N[C@H]2CC[C@@H](NS(=O)(=O)Cc3ccc(Cl)c(Cl)c3)CC2)cc(N(C)C)n1` [compound 473] was tested, and the class was 3 (Class 3: The value of percent of control at 10^−7 M was more than 60% or the value of IC50 was more than 200 nM.).
